A compilation of properties of binary mixtures (doi:10.5541/ijot.303607)

Assay: xn = mol fraction of the nth substance listed
Conditions: 101 kPa

CC(O)C(=O)[O-].[NH3+]CCO (stereo not given) + CCO
speed of sound [m/s]
Conditions | x2 = 0.0543 | x2 = 0.1051 | x2 = 0.206 | x2 = 0.3151 | x2 = 0.4144 | x2 = 0.5122 | x2 = 0.6116 | x2 = 0.7232 | x2 = 0.8109 | x2 = 0.9528
288.15 K | – | 1848 | 1792.9 | 1727.2 | – | 1590.8 | 1514 | – | 1349.2 | –
290.65 K | 1863.7 | 1839.9 | – | 1720.3 | 1654.4 | 1586.3 | 1507.4 | 1416 | 1342 | 1219.2
293.15 K | 1855.8 | 1832.1 | 1779 | 1713.6 | – | – | 1500.8 | 1409.1 | 1334.8 | 1211.3
295.65 K | 1848.3 | 1824.7 | 1772.2 | 1707 | 1640.9 | 1573.7 | 1494 | 1402.2 | 1327.5 | 1203.3
298.15 K | – | – | 1765.7 | 1700.7 | 1634.4 | – | 1487.3 | 1395.3 | 1320.3 | 1195.4
300.65 K | – | – | 1765.7 | 1700.7 | 1634.4 | 1567.3 | 1487.3 | 1395.3 | – | –
303.15 K | 1828 | 1804.4 | – | – | 1621.5 | 1555 | 1474.1 | – | 1305.9 | 1179.5
305.65 K | 1821.7 | 1798.1 | 1747.1 | 1682.1 | – | – | 1467.5 | 1374.7 | 1298.8 | 1171.5
308.15 K | – | 1791.9 | 1741.1 | 1676 | 1608.8 | 1542.7 | 1461 | 1367.9 | 1291.6 | 1163.6
310.65 K | 1809.5 | 1785.8 | 1735.2 | 1670 | 1602.6 | 1536.5 | 1454.5 | – | 1284.4 | –
313.15 K | – | 1779.7 | 1729.3 | 1664 | 1596.3 | 1530.3 | 1448 | 1354.3 | 1277.3 | 1147.8
315.65 K | – | 1773.7 | 1723.4 | 1658 | 1590.1 | 1524.2 | 1441.5 | 1347.5 | 1270.2 | –
318.15 K | – | 1767.8 | 1717.5 | – | 1583.9 | 1518.1 | 1435 | 1340.8 | 1263.1 | 1132.2
320.65 K | 1786.1 | 1762 | 1711.8 | 1646 | – | 1511.9 | 1428.6 | – | 1256.1 | 1124.5
323.15 K | 1780.3 | 1756.1 | 1706 | 1640.2 | 1571.5 | 1505.7 | 1422.2 | 1327.3 | 1249 | –

CC(O)C(=O)[O-].[NH3+]CCO (stereo not given) + CO
speed of sound [m/s]
Conditions | x2 = 0.0675 | x2 = 0.1469 | x2 = 0.2586 | x2 = 0.3811 | x2 = 0.4275 | x2 = 0.518 | x2 = 0.6083 | x2 = 0.7069 | x2 = 0.7972 | x2 = 0.8985
288.15 K | 1875.8 | – | 1802.2 | 1745.7 | 1721.2 | 1666.4 | 1603.6 | 1522 | – | 1301.9
290.65 K | 1867.4 | 1839.5 | 1795.1 | – | 1715 | 1660 | 1597.9 | 1515.5 | 1422 | 1294.8
293.15 K | – | 1831.9 | 1788.4 | – | – | 1653.7 | 1592 | 1509 | 1415.5 | 1287.8
295.65 K | 1852.2 | 1824.6 | – | 1727.1 | – | – | 1586.1 | – | 1409 | –
298.15 K | 1845.1 | 1817.8 | 1775.2 | – | 1697 | 1641.3 | 1580.2 | – | 1402.4 | –
300.65 K | 1838.4 | 1811.2 | 1768.8 | 1715.2 | 1690.9 | – | 1574.2 | 1489.5 | 1395.8 | 1266.1
303.15 K | 1831.9 | 1804.9 | 1762.6 | 1709.4 | 1685 | – | – | 1483 | 1389.3 | 1258.9
305.65 K | 1825.7 | 1798.8 | 1756.6 | 1703.5 | 1679 | 1623.2 | 1562.1 | 1476.6 | 1382.8 | 1251.8
308.15 K | 1819.6 | 1792.9 | 1750.5 | 1697.6 | 1673 | 1617.2 | 1556 | – | 1376.2 | 1244.6
310.65 K | 1813.6 | 1787 | 1744.5 | 1691.7 | 1667.1 | 1611.2 | 1549.9 | 1463.8 | 1369.7 | 1237.5
313.15 K | 1807.7 | 1781.1 | – | 1685.9 | 1661.1 | 1605.2 | – | 1457.3 | – | –
315.65 K | 1801.9 | 1775.2 | 1732.6 | 1680 | – | 1599.1 | 1537.6 | 1451 | 1356.6 | 1223.2
318.15 K | 1796.2 | – | 1726.7 | 1674.2 | 1649.2 | 1593.1 | 1531.4 | 1444.5 | – | 1216.1
320.65 K | 1790.5 | 1763.7 | 1720.8 | 1668.4 | 1643.4 | 1587.1 | 1525.2 | 1438.2 | 1343.6 | 1209
323.15 K | – | 1758 | 1715 | 1662.7 | – | 1581.1 | 1519 | 1431.9 | 1337.2 | 1201.9

CC(O)C(=O)[O-].[NH3+]CCO (stereo not given) + O
speed of sound [m/s]
Conditions | x1 = 0.0088 | x1 = 0.0135 | x2 = 0.3197 | x2 = 0.5253 | x2 = 0.6892 | x2 = 0.9027 | x2 = 0.9293 | x2 = 0.949 | x2 = 0.9707
288.15 K | 1513.4 | – | – | 1897.5 | – | 1778.8 | 1727.7 | 1676.5 | 1602.1
290.65 K | 1520.5 | 1541.4 | – | 1891.7 | 1887.8 | – | 1728.5 | 1678.8 | 1606.7
293.15 K | 1527.1 | 1547.4 | 1882.8 | 1886 | 1882.8 | 1776.9 | 1729 | 1680.8 | –
295.65 K | 1533.2 | 1553 | 1876.5 | 1880.3 | 1877.8 | – | 1729.3 | 1682.6 | 1614.6
298.15 K | 1539 | 1558.2 | 1870.4 | – | 1872.8 | 1774.5 | 1729.4 | 1684.1 | 1618.1
300.65 K | 1544.3 | – | 1864.4 | 1869.1 | – | – | 1729.3 | – | 1621.3
303.15 K | 1549.2 | 1567.4 | 1858.5 | 1863.5 | 1862.7 | – | 1729 | – | 1624.1
305.65 K | 1553.7 | – | 1852.6 | 1858 | 1857.7 | – | 1728.6 | 1687.2 | 1626.6
308.15 K | 1557.8 | 1575.2 | – | 1852.5 | 1852.6 | 1767.7 | 1727.9 | 1687.7 | 1628.8
310.65 K | 1561.5 | – | 1841.1 | – | 1847.5 | – | 1727 | 1688 | 1630.8
313.15 K | 1565 | – | 1835.4 | – | 1842.3 | 1763.4 | 1726 | 1688.1 | 1632.4
315.65 K | 1568 | 1584.1 | 1829.7 | 1835.9 | – | 1761.1 | 1724.7 | 1687.9 | –
318.15 K | 1570.7 | 1586.5 | 1824 | – | 1831.9 | 1758.6 | – | 1687.5 | –
320.65 K | – | 1588.5 | 1818.3 | 1824.8 | 1826.7 | 1756 | – | – | 1635.6
323.15 K | 1575.1 | 1590.1 | 1812.7 | – | – | 1753.2 | 1719.9 | 1686.1 | –
